The test system of one series is AMPA receptors. Nature of the series: Excitatory fluxes induced by AMPA in Xenopus oocytes injected with rat cerebral cortex mRNA (2-electrode voltage-clamp). The class given is cell-based. Particulars: rat cortex poly-(A+) mRNA, AMPA 10 μM. The protocol: Study of the Excitatory Fluxes Induced by AMPA in Xenopus oocytes
mRNAs are prepared from cerebral cortex of male Wistar rat by the guanidinium thiocyanate/phenyl/chloroform method. The poly-(A^+) mRNAs are isolated by chromatography on oligo-dT cellulose and injected in an amount of 50 ng per oocyte. The oocytes are left to incubate for 2 to 3 days at 18° C. to allow expression of the receptors and are then stored at from 8 to 10° C.
Electrophysiological recording is carried out in a Plexiglass® chamber at from 20 to 24° C. in OR2 medium (J. Exp. Zool., 1973, 184, 321-334) by the 2-electrode “voltage-clamp” method, a 3rd electrode being placed in the bath to serve as reference.
All the compounds are administered via the incubation medium and the electric current is measured at the end of the period of administration. AMPA is used at a concentration of 10 μM. For each compound studied, the concentration that doubles (EC2X) or quintuples (EC5X) the intensity of the current induced by AMPA alone (5 to 50 nA) is determined.
On to `O=S1(=O)NC2CCCN2c2ccc(Oc3ccccc3)cc21` (single isomer, unassigned) [Example 3, 7-Phenoxy-2,3,3a,4-tetrahydro-1H-pyrrolo[2,1-c][1,2,4]-benzothiadiazine 5,5-dioxide, α Isomer], for which the “EC2X (concentration that doubles the intensity of the current induced by AMPA alone)” value came to 0.8 µM and the “EC5X (concentration that quintuples the intensity of the current induced by AMPA alone)” value was 3.6 µM.
Taken in the same sequence, the figures for `CCN1CNS(=O)(=O)c2cc(Oc3ccccc3)ccc21` [Example 29, 4-Ethyl-7-phenoxy-3,4-dihydro-2H-1,2,4-benzothiadiazine 1,1-dioxide] were 1.4 µM and 4.5 µM.

Tested on in the next series: not given
Assay: not given
Settings: not given
A word on the melting point: it is the temperature, or range, at which the solid turns liquid. With `N#Cc1ccc(Oc2ccc3c(c2)S(=O)(=O)NC2CCCN32)cc1` (centres unmarked) [Example 5, 4-[(5,5-Dioxido-2,3,3a,4-tetrahydro-1H-pyrrolo[2,1-c][1,2,4]benzothiadiazin-7-yl)oxy]benzonitrile], the melting point was 242 to 245 °C.
Compound `N#Cc1cccc(Oc2ccc3c(c2)S(=O)(=O)NC2CCCN32)c1` (centres unmarked) [Example 6, 3-[(5,5-Dioxido-2,3,3a,4-tetrahydro-1H-pyrrolo [2,1-c][1,2,4]benzothiadiazin-7-yl)oxy]benzonitrile] registered a melting point of 227 to 230 °C.
For the compound `Cc1ccc(Oc2ccc3c(c2)S(=O)(=O)NC2CCCN32)cc1` (centres unmarked) [Example 7, 7-(4-Methylphenoxy)-2,3,3a,4-tetrahydro-1H-pyrrolo[2,1-c][1,2,4]-benzothiadiazine 5,5-dioxide], the melting point lay within 222 to 226 °C.
On to `Cc1cccc(Oc2ccc3c(c2)S(=O)(=O)NC2CCCN32)c1` (centres unmarked) [Example 8, 7-(3-Methylphenoxy)-2,3,3a,4-tetrahydro-1H-pyrrolo[2,1-c][1,2,4]-benzothiadiazine 5,5-dioxide], for which the melting point is 190 to 195 °C.
On the same count and under the same terms, with `COc1ccc(Oc2ccc3c(c2)S(=O)(=O)NC2CCCN32)cc1` (centres unmarked) [Example 9, 7-(4-Methoxyphenoxy)-2,3,3a,4-tetrahydro-1H-pyrrolo[2,1-c][1,2,4]-benzothiadiazine 5,5-dioxide] the figure was 188 to 191 °C.
`COc1ccccc1Oc1ccc2c(c1)S(=O)(=O)NC1CCCN21` (centres unmarked) [Example 13, 7-(2-Methoxyphenoxy)-2,3,3a,4-tetrahydro-1H-pyrrolo[2,1-c][1,2,4]-benzothiadiazine 5,5-dioxide] gave a melting point of 175 to 176 °C.
The compound `O=[N+]([O-])c1cccc(Oc2ccc3c(c2)S(=O)(=O)NC2CCCN32)c1` (centres unmarked) [Example 15, 7-(3-Nitrophenoxy)-2,3,3a,4-tetrahydro-1H-pyrrolo[2,1-c][1,2,4]-benzothiadiazine 5,5-dioxide] returned a melting point of 201 to 204 °C.
Compound `O=S1(=O)NC2CCCN2c2ccc(Oc3cc(C(F)(F)F)cc(C(F)(F)F)c3)cc21` (centres unmarked) [Example 16, 7-[3,5-Di(trifluoromethyl)phenoxy]-2,3,3a,4-tetrahydro-1H-pyrrolo[2,1-c][1,2,4]benzothiadiazine 5,5-dioxide] returned a melting point of 201 to 203 °C.
In turn, `O=S1(=O)NC2CCCN2c2ccc(Oc3cccc(Cl)c3)cc21` (centres unmarked) [Example 17, 7-(3-Chlorophenoxy)-2,3,3a,4-tetrahydro-1H-pyrrolo[2,1-c][1,2,4]-benzothiadiazine 5,5-dioxide] came in with a melting point of 194 to 198 °C.
Still for that read-out and setting: to `CCOc1cccc(Oc2ccc3c(c2)S(=O)(=O)NC2CCCN32)c1` (centres unmarked) [Example 18, 7-(3-Ethoxyphenoxy)-2,3,3a,4-tetrahydro-1H-pyrrolo[2,1-c][1,2,4]-benzothiadiazine 5,5-dioxide] belongs 150 °C; to `O=S1(=O)NC2CCCN2c2ccc(Oc3cccc(OC(F)(F)F)c3)cc21` (centres unmarked) [Example 19, 7-(3-Trifluoromethoxyphenoxy)-2,3,3a,4-tetrahydro-1H-pyrrolo-[2,1-c][1,2,4]benzothiadiazine 5,5-dioxide], 175 °C; to `O=S1(=O)NC2CCCN2c2ccc(Oc3cccc4ccccc34)cc21` (centres unmarked) [Example 20, 7-(1-Naphthyloxy)-2,3,3a,4-tetrahydro-1H-pyrrolo[2,1-c][1,2,4]-benzothiadiazine 5,5-dioxide], 227 to 229 °C.
The compound `O=S1(=O)NC2CCCN2c2ccc(Oc3ccc4ccccc4c3)cc21` (centres unmarked) [Example 21, 7-(2-Naphthyloxy)-2,3,3a,4-tetrahydro-1H-pyrrolo[2,1-c][1,2,4]-benzothiadiazine 5,5-dioxide] returned a melting point of 234 to 236 °C.
`O=S1(=O)NC2CCCN2c2ccc(Oc3cccc(OCc4ccccc4)c3)cc21` (centres unmarked) [Example 22, 7-(3-Benzyloxyphenoxy)-2,3,3a,4-tetrahydro-1H-pyrrolo-[2,1-c][1,2,4]benzothiadiazine 5,5-dioxide] registered a melting point of 179 to 182 °C.
Same read-out and setting: to `COC(=O)c1cccc(Oc2ccc3c(c2)S(=O)(=O)NC2CCCN32)c1` (centres unmarked) [Example 26, Methyl 3-[(5,5-dioxido-2,3,3a,4-tetrahydro-1H-pyrrolo[2,1-c][1,2,4]-benzothiadiazin-7-yl)oxy]benzoate] belongs 223 to 227 °C; to `CCN1CNS(=O)(=O)c2cc(Oc3ccccc3)ccc21` [Example 29, 4-Ethyl-7-phenoxy-3,4-dihydro-2H-1,2,4-benzothiadiazine 1,1-dioxide], 179 to 181 °C; to `CCCN1CNS(=O)(=O)c2cc(Oc3ccccc3)ccc21` [Example 30, 4-Propyl-7-phenoxy-3,4-dihydro-2H-1,2,4-benzothiadiazine 1,1-dioxide], 143 to 145 °C.
Take `CCN1CNS(=O)(=O)c2cc(Oc3cccc(C#N)c3)ccc21` [Example 31, 3-[(4-Ethyl-1,1-dioxido-3,4-dihydro-2H-1,2,4-benzothiadiazin-7-yl)oxy]benzonitrile]: the melting point is 143 to 146 °C.
`CCN1CNS(=O)(=O)c2cc(Oc3cccc(OC)c3)ccc21` [Example 32, 4-Ethyl-7-(3-methoxyphenoxy)-3,4-dihydro-2H-1,2,4-benzothiadiazine 1,1-dioxide] returned a melting point of 91 to 93 °C.
Consider `CSc1cccc(Oc2ccc3c(c2)S(=O)(=O)NC2CCCN32)c1` (centres unmarked) [Example 34, 7-(3-Methylsulphanylphenoxy)-2,3,3a,4-tetrahydro-1H-pyrrolo-[2,1-c][1,2,4]benzothiadiazine 5,5-dioxide], for which the melting point amounted to 160 °C.
The compound `CCc1cccc(Oc2ccc3c(c2)S(=O)(=O)NC2CCCN32)c1` (centres unmarked) [Example 35, 7-(3-Ethylphenoxy)-2,3,3a,4-tetrahydro-1H-pyrrolo [2,1-c][1,2,4]-benzothiadiazine 5,5-dioxide] had a melting point of 143 to 144 °C.
Turning to `CC(C)c1cccc(Oc2ccc3c(c2)S(=O)(=O)NC2CCCN32)c1` (centres unmarked) [Example 36, 7-(3-Isopropylphenoxy)-2,3,3a,4-tetrahydro-1H-pyrrolo[2,1-c][1,2,4]-benzothiadiazine 5,5-dioxide], the melting point was in the range of 171 to 172 °C.
`O=S1(=O)NC2CCCN2c2ccc(Oc3cccc(F)c3)cc21` (centres unmarked) [Example 37, 7-(3-Fluorophenoxy)-2,3,3a,4-tetrahydro-1H-pyrrolo [2,1-c][1,2,4]-benzothiadiazine 5,5-dioxide] returned a melting point of 201 °C.
`O=S1(=O)NC2CCCN2c2ccc(Oc3cccc(Br)c3)cc21` (centres unmarked) [Example 38, 7-(3-Bromophenoxy)-2,3,3a,4-tetrahydro-1H-pyrrolo[2,1-c][1,2,4]-benzothiadiazine 5,5-dioxide]: the melting point lay in the range of 193 to 195 °C.
On the same count and under the same terms, to `CCN1CNS(=O)(=O)c2cc(Oc3cccc(C)c3)ccc21` [Example 57, 4-Ethyl-7-(3-methylphenoxy)-3,4-dihydro-2H-[1,2,4]benzothiadiazine 1,1-dioxide] belongs 72 to 75 °C.
As for `CCN1CNS(=O)(=O)c2cc(Oc3cccc(NS(C)(=O)=O)c3)ccc21` [Example 58, N-{3-[(4-Ethyl-1,1-dioxido-3,4-dihydro-2H-1,2,4-benzothiadiazin-7-yl)oxy]phenyl}methanesulphonamide], the melting point was 165 to 168 °C.
`CCN1CNS(=O)(=O)c2cc(Oc3cccc(C(C)=O)c3)ccc21` [Example 59, 1-{3-[(4-Ethyl-1,1-dioxido-3,4-dihydro-2H-1,2,4-benzothiadiazin-7-yl)oxy]phenyl}ethanone]: the melting point lay in the range of 164 to 166 °C.
In turn, `CCN1CNS(=O)(=O)c2cc(Oc3ccc(C)c(C)c3)ccc21` [Example 61, 7-(3,4-Dimethylphenoxy)-4-ethyl-3,4-dihydro-2H-1,2,4-benzothiadiazine 1,1-dioxide] showed a melting point of 109 to 111 °C.

The values above are taken from patent publication US20050124606A1, “Novel benzothiazine and benzothiadiazine derivatives method for preparing same and pharmaceutical compositions containing same” (priority 2001, published 2005).
